Measurements: patent US20230021562A1, “[…] D[…]-1 INHIBITORS” (priority 2019, published 2023)
Values joined by “and” are separate entries in the source; they are usually repeats but may differ in a detail not shown here. Equal values may be shown once. Read-outs that look alike come from different tables or passages of the source.

Legend:
[1] = tested on: MOLP-8 human multiple myeloma cell line; assay: MOLP8 Caspase-Glo 3/7 luminescent assay; format: cell-based; conditions: averaged over all runs on all batches
Excerpt: (§1) MCL-1 is a regulator of apoptosis and is highly over-expressed in tumor cells that escape cell death. The assay evaluates the cellular potency of small-molecule compounds targeting regulators of the apoptosis pathway, primarily MCL-1, Bfl-1, Bcl-2, and other proteins of the Bcl-2 family. Protein-protein inhibitors disrupting the interaction of anti-apoptotic regulators with BH3-domain proteins initiate apoptosis.
The Caspase-Glo® 3/7 Assay is a luminescent assay that measures caspase-3 and -7 activities in purified enzyme preparations or cultures of adherent or suspension cells. The assay provides a proluminescent caspase-3/7 substrate, which contains the tetrapeptide sequence DEVD. This substrate is cleaved to release aminoluciferin, a substrate of luciferase used in the production of light. Addition of the single Caspase-Glo® 3/7 Reagent in an “add-mix-measure” format results in cell lysis, followed by caspase cleavage of the substrate and generation of a “glow-type” luminescent signal.
This assay uses the MOLP-8 human multiple myeloma cell line, which is sensitive to MCL-1 inhibition.
Cell cultures were maintained between 0.2 and 2.0×10^6 cells/mL. The cells were harvested by collection in 50 mL conical tubes. The cells were then pelleted at 500 g for 5 mins before removing supernatant and resuspension in fresh pre-warmed culture medium. The cells were counted and diluted as needed.
The assay reagent was prepared by transferring the buffer solution to the substrate vial and mixing. The solution may be stored for up to 1 week at 4° C. with negligible loss of signal.
Compounds were delivered in assay-ready plates (Proxiplate) and stored at −20° C.
Assays always include 1 reference compound plate containing reference compounds. The plates were spotted with 40 nL of compounds (0.5% DMSO final in cells; serial dilution; 30 μM highest conc. 1/3 dilution, 10 doses, duplicates). The compounds were used at room temperature and 4 μL of pre-warmed media was added to all wells except column 2 and 23. The negative control was prepared by adding 1% DMSO in media. The positive control was prepared by adding the appropriate positive control compound in final concentration of 60 μM in media. The plate was prepared by adding 4 μL negative control to column 23, 4 μL positive control to column 2 and 4 μL cell suspension to all wells in the plate. The plate with cells was then incubated at 37° C. for 2 hours. The assay signal reagent is the Caspase-Glo solution described above, and 8 μL was added to all wells. The plates were then sealed and measured after 30 minutes.
The activity of a test compound was calculated as percent change in apoptosis induction as follows: […]

[2] = tested on: MOLP8 cell line; assay: MOLP8 CellEvent Caspase-3/7 Green live-cell IncuCyte apoptosis assay; format: cell-based, human; conditions: averaged values
Procedure: as §1
Activation of the apoptotic pathway was measured using the CellEvent™ Caspase-3/7 Green ReadyProbes™ Reagent (Thermo Fisher C10423, C10723). This assay produces a green fluorescent stain in cells that enter the apoptosis pathway. CellEvent® Caspase-3/7 Green reagent is a four amino acid peptide (DEVD) conjugated to a nucleic acid-binding dye that is non-fluorescent when not bound to DNA. The CellEvent® Caspase-3/7 Green reagent is intrinsically non-fluorescent, as the DEVD peptide inhibits binding of the dye to DNA. Upon activation of caspase-3/7 in apoptotic cells, the DEVD peptide is cleaved and the free dye can bind DNA, generating a bright green fluorescence. The activation of Caspase-3 and Caspase-7 is downstream of inhibition of MCL-1 or other apoptosis inhibiting proteins in cell lines that are dependent on them.
The live-cell readout on the IncuCyte permits tracking over time of the Caspase activation. […] The IncuCyte readout also allows one to normalize for cell number, as the suspension cells are hard to distribute evenly.
Signals were measured every 2 h for a duration of 22 h. The ratio of the Caspase mask to the Confluence mask, per image, as raw data, was calculated and the kinetic trace for every well was exported to Genedata Screener for analysis.
In Genedata Screener values for 6 h, 12 h, and 22 h from the kinetic traces were extracted. The values were normalized against negative controls (untreated cells). A standard dose-response analysis was performed on the normalized data.
The following data was reported at each of the following three aforementioned time points: (a) The dose-response curve, (b) The qAC50 and qAC50 Mode, and (c) Max Activity.
Cells were maintained in culture medium containing 10% Heat Inactivated (HI) FBS, 2 mM L-Glutamine and 50 μg/mL Gentamycin phenol red free RPMI-1640. Cells were split at 0.4 million/mL twice a week.
On Day 1, plates containing individual wells with test compounds at 10 mM concentration, 150 nL per well. The final concentrations range from […] compound (and no compound control) and compounds were thawed at room temperature for 1 hour. 25 μl of prewarmed medium was added into each well by multidrop (column 1, 3-22, 24), followed by addition of DMSO control (0.6% DMSO) in column 2. The plate was sealed using Breathe-Easy® sealing membrane and shaken for 30 min at room temperature to dissolve the test compound(s) in medium. The plate was then kept in the incubator for 1 hour at 37° C., 5% CO2.
MOLP8 cells in medium at […] (20000/50 μl final in assay) were prepared with CellEvent™ Caspase-3/7 Green Detection Reagent at 4 μM (2 μM final in assay). Once prepared, the cells were added to the test compound plate in an amount of 20000 and the plate was immediately placed in the IncuCyte and imaging started using following settings: 10× objective, 2 s exposure time in green channel, interval of 2 h, acquisition stopped after 22 h.
For analysis in IncuCyte, a Basic Analysis protocol was defined to calculate the “confluence” and “caspase” areas from the “Phase” and “green” images, respectively, as follows: (a) Confluence: Segmentation Adjustment 1, Hole Fill 0, Adjust Size −2, No filters (b) Caspase: Top-Hat segmentation, Radius 10, Threshold 0.3 GCU, Edge Split On with sensitivity 0, Hole Fill 0, Adjust Size 1, and filter on a minimum Area of 20 μm^2. The analyzer is trained on a sufficient number of positive and negative control wells, as well as compound treated wells, verifying that the “confluence” layer detects both live and dead (condensed) cells. […]

[3] = target: Myeloid Cell Leukemia 1 (Mcl-1) (Homo sapiens, UniProt Q07820); assay: biochemical; format: binding; conditions: HTRF Ki (nM)
[4] = MOLP8 cells, 2 hours incubation, read-out: MOLP8 Caspase-Glo AC50
[5] = read-out: MOLP8 Caspase 3/7 AC50 at 6 h, MOLP8 cells, 6 h
[6] = read-out: MOLP8 Caspase 3/7 AC50 at 12 h, MOLP8 cells, 12 h
[7] = read-out: MOLP8 Caspase 3/7 AC50 at 22 h, MOLP8 cells, 22 h
[8] = Homo sapiens, MOLP-8, 2 h, read-out: MOLP8 Caspase-Glo AC50 (nM), MOLP8 cells, 2 hours incubation
[9] = Homo sapiens, MOLP-8, 6 h, read-out: MOLP8 Caspase 3/7 AC50 at 6 h (μM), MOLP8 cells, 6 h
[10] = Homo sapiens, MOLP-8, 12 h, read-out: MOLP8 Caspase 3/7 AC50 at 12 h (μM), MOLP8 cells, 12 h
[11] = Homo sapiens, MOLP-8, 22 h, read-out: MOLP8 Caspase 3/7 AC50 at 22 h (μM), MOLP8 cells, 22 h
[12] = read-out: MOLP8 Caspase-Glo AC50, MOLP8 cells, 2 hours incubation

Chain of Myeloid Cell Leukemia 1 (Mcl-1) (Q07820 whole entry): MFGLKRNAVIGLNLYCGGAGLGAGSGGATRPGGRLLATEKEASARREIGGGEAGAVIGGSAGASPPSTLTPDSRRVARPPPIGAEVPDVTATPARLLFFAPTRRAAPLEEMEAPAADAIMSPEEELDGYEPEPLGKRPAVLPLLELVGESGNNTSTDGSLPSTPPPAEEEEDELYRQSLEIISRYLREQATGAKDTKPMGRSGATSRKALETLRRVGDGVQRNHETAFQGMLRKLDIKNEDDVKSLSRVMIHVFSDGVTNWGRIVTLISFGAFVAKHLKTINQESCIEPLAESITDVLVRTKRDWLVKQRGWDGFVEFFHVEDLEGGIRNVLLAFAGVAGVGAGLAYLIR

Compound | AC50 [1, 4] [nM] | AC50 [2, 5] [µM] | AC50 [2, 6] [µM] | AC50 [2, 7] [µM] | Ki [3] | AC50 [1, 8] [nM] | AC50 [2, 9] [µM] | AC50 [2, 10] [µM] | AC50 [2, 11] [µM] | AC50 [1, 12] [nM] | AC50 ([1]; Homo sapiens, MOLP-8, 2 h, MOLP8 cells, 2 hours incubation, read-out: MOLP8 Caspase-Glo AC50) [nM]
COCCOCCn1nc(C)c2c1CN(C)Cc1cc(n(C)n1)CSc1cc(c3ccccc3c1)OCCCc1c(C(=O)O)n(C)c3c-2c(Cl)ccc13 (single isomer, unassigned) [Compound 30] | 971 | 2.01 | 2.14 | 2.23 | 0.81 nM and 0.75 nM | – | – | – | – | – | –
Cc1c2c(nn1C)CSCc1cc(n[nH]1)CSc1cc(c3ccccc3c1)OCCCc1c(C(=O)O)n(C)c3c-2c(Cl)ccc13 [Compound 3] | – | – | – | – | 0.08 nM and 0.11 nM | 284 | 0.6 | 0.55 | 0.47 | – | –
Cc1[nH]nc2c1-c1c(Cl)ccc3c(c(C(=O)O)n(C)c13)CCCOc1cc(cc3ccccc13)SCc1cc(nn1C)CN(C)C2 (single isomer, unassigned) [Compound 24] | – | ~10.5 | 12 | 11.5 | 1.2 nM and 1.87 nM | – | – | – | – | 8160 | –
Cc1[nH]nc2c1-c1c(Cl)ccc3c(c(C(=O)O)n(C)c13)CCCOc1cc(cc3ccccc13)SCc1cc(nn1C)CN(C)C2 (single isomer, unassigned) [Compound 23] | – | 0.45 | 0.45 | 0.42 | 0.07 nM and 0.03 nM | – | – | – | – | 215 | –
Cc1c2c(nn1CC1CCOCC1)CN(C)Cc1cc(n(C)n1)CSc1cc(c3ccccc3c1)OCCCc1c(C(=O)O)n(C)c3c-2c(Cl)ccc13 (single isomer, unassigned) [Compound 17] | 564 | 1.23 | 1.24 | 1.22 | 0.41 nM and 0.66 nM | – | – | – | – | – | –
Cc1nn(CCO)c2c1-c1c(Cl)ccc3c(c(C(=O)O)n(C)c13)CCCOc1cc(cc3ccccc13)SCc1cc(nn1C)CN(C)C2 (single isomer, unassigned) [Compound 40] | – | ~26.3 | > 30.2 | ~15.6 | 2.48 nM and 2.61 nM | 10700 | – | – | – | – | –
Cc1c2c(nn1CCN1CCOCC1)CN(C)Cc1cc(n(C)n1)CSc1cc(c3ccccc3c1)OCCCc1c(C(=O)O)n(C)c3c-2c(Cl)ccc13 (single isomer, unassigned) [Compound 14] | 3680 | 7.67 | 7.16 | 7.33 | 2.85 nM and 2.53 nM | – | – | – | – | – | –
Cc1nn(CC2CCOCC2)c2c1-c1c(Cl)ccc3c(c(C(=O)O)n(C)c13)CCCOc1cc(cc3ccccc13)SCc1cc(nn1C)CN(C)C2 (single isomer, unassigned) [Compound 15] | 67 | 0.23 | 0.23 | 0.19 | 0.09 nM and 0.03 nM | – | – | – | – | – | –
Cc1nn(CC2CCOCC2)c2c1-c1c(Cl)ccc3c(c(C(=O)O)n(C)c13)CCCOc1cc(cc3ccccc13)SCc1cc(nn1C)CN(C)C2 (single isomer, unassigned) [Compound 18] | 3760 | 8.32 | 8.41 | 7.85 | 2.46 nM and 3.31 nM | – | – | – | – | – | –
Cc1c2c(nn1CCN1CCOCC1)CN(C)Cc1cc(n(C)n1)CSc1cc(c3ccccc3c1)OCCCc1c(C(=O)O)n(C)c3c-2c(Cl)ccc13 (single isomer, unassigned) [Compound 13] | 75 | 0.15 | 0.15 | 0.17 | 0.05 nM and 0.04 nM | – | – | – | – | – | –
Cc1nn(CCN2CCOCC2)c2c1-c1c(Cl)ccc3c(c(C(=O)O)n(C)c13)CCCOc1cc(cc3ccccc13)SCc1cc(nn1C)CN(C)C2 (single isomer, unassigned) [Compound 41] | 72 | 0.19 | 0.2 | 0.18 | 0.05 nM and 0.03 nM | – | – | – | – | – | –
COCCn1nc(C)c2c1CN(C)Cc1cc(n(C)n1)CSc1cc(c3ccccc3c1)OCCCc1c(C(=O)O)n(C)c3c-2c(Cl)ccc13 (single isomer, unassigned) [Compound 26] | – | 8.29 | 7.96 | 8.61 | 4.14 nM and 5.54 nM | 4330 | – | – | – | – | –
Cc1c2c(nn1CCN(C)C)CN(C)Cc1cc(n(C)n1)CSc1cc(c3ccccc3c1)OCCCc1c(C(=O)O)n(C)c3c-2c(Cl)ccc13 (single isomer, unassigned) [Compound 20] | 83 | 0.29 | 0.32 | 0.33 | 0.06 nM and 0.03 nM | – | – | – | – | – | –
COCCOCCn1nc(C)c2c1CN(C)Cc1cc(n(C)n1)CSc1cc(c3ccccc3c1)OCCCc1c(C(=O)O)n(C)c3c-2c(Cl)ccc13 (single isomer, unassigned) [Compound 29] | 23 | 0.06 | 0.062 | 0.06 | 0.06 nM and 0.03 nM | – | – | – | – | – | –
Cc1c2c(nn1C)CSCc1cc(nn1CC1CCOCC1)CSc1cc(c3ccccc3c1)OCCCc1c(C(=O)O)n(C)c3c-2c(Cl)ccc13 [Compound 11] | – | – | – | – | 0.47 nM and 0.43 nM | – | 0.37 | 0.43 | 0.41 | – | 385
